In patent publication US20060008574A1, “Galactosyl isomalt, method for production and use thereof” (priority 2002, published 2006):
Where two headings read alike, the source gives them in different places.

Columns and labels:
[1] = Stability in the stomach: hydrolysis rate at pH 2.0; assay type: physicochemical; conditions: 1% solution, 10 mmol/L hydrochloric acid, pH 2.0, 37° C.
Experimental: The stability of a substance in the gastric passage can be simulated by determining the hydrolysis rate at pH 2.0. Sucrose and 1-kestose are used as controls.
In each case a 1% solution of the trisaccharides (DP 3) from Example 4 is incubated with 10 mmol/L hydrochloric acid, pH 2.0 at 37° C. for 3 h. Samples are taken from the reaction mixture after 60, 120 and 180 min and are analyzed by basic anion exchange chromatography, HPAEC.

[2] = system: pancreatin enzyme (Sigma); test: Stability with respect to pancreatic enzymes; assay type: in vitro ADME; conditions: 1% solution, 0.2% pancreatin, pH 7.0, 210 min at 37° C.
Experimental: The pancreatic secretion contains a large number of hydrolases, including carbohydrate-degrading enzymes like α-amylase, which breaks down α-1,4-glucans (starch, glycogen) preferably to maltose and maltooligosaccharides. The test of the stability of saccharides with respect to pancreatic enzymes is carried out as follows.
3.0 mL of a carbohydrate solution (solution 2 to solution 6) is mixed with 0.1 mL of the enzyme solution (solution 7) per batch:
Solution 1: 20 mmol/L Na phosphate buffer, pH 7.0, with 6 mmol/L NaCl
Solution 2: 1% solution of β-1,4-galactosyl isomalt mixture in accordance with the invention, prepared according to Example 2 and Example 4, in solution 1
Solution 3: 1% solution of β-1,3-galactosyl isomalt mixture in accordance with the invention, prepared according to Example 1 and Example 4, in solution 1
Solution 4: 1% solution of β-1,6-galactosyl isomalt mixture in accordance with the invention; prepared according to Example 3 and Example 4, in solution 1
Solution 6: 1% starch solution (soluble starch, according to Zulkowski), in solution 1
Solution 7: 0.2% pancreatin enzyme (Sigma), dissolved in solution 1
After 210 min incubation in a thermomixer (interval shaking) at 37° C., the reaction is stopped by heating to 95° C. for 15 min and the samples are analyzed by HPAEC. The starch-containing sample (solution6+solution 7) is completely hydrolyzed before the HPAEC analysis by heating for 3 h in 1 mol/L hydrochloric acid at 95° C., and the glucose resulting from this is determined in order to calculate the starch content of the sample.

lactase = test: Stability with respect to lactase; assay type: in vitro ADME; conditions: 0.9 unit lactase, 1% solution, 37° C., 6 h
Text: The enzyme lactase that is present at the mucosa in the small intestine serves in vivo to break down lactose that gets into the small intestine and the resulting monosaccharides are absorbed into the bloodstream through the intestinal wall.
The enzyme lactase is isolated in a modified method of Wallenfels, K., and Fischer, J. (Z. Physiologische Chemie 321 (1960) 223).
Solutions 1-5: see Example 8c)
Solution 6: 1% solution of lactose in solution 1
Solution 7: 1% solution of isomalt in solution 1
Solution 8: Lactase in solution 1
(solutions 2-7), mixed and incubated at 37° C. The reaction is stopped after 6 h by heating to 95° C. for 15 min.

human feces = test: In vitro fermentation in human feces; assay type: cell-based; conditions: for Degradation rate: 0.5% (w/v) substrate, feces suspension, anaerobic, 37° C.; for Butyrate content (end sample): end of fermentation with human feces
Experimental: Incubation of carbohydrates with human feces allows statements to be made about the rate of metabolization by the bacterial population and formation of the short-chain fatty acid butyric acid.
To invest the fermentability in an in vitro fermentation experiment, Raftilose® P95 (fructooligosaccharides, DP4-5), galactosyl lactose (Oligomate DP 3) and lactosucrose were used for comparison as carbohydrates of similar structure and degree of polymerization, in addition to β-galactosyl isomalts.
An anaerobic medium of the following composition was used for the in vitro experiments:
9 mL of the anaerobic medium 1 described above are mixed with 0.5% (w/v) of the galactosyl isomalts to be tested (prepared according to Examples 1-3) and the corresponding controls lactosucrose and galactosyl lactose and then inoculated with 1 mL of a 10% feces suspension (mixed feces from two subjects) in anaerobic 50 mmol/L phosphate buffer, pH 7.0, to which 0.5 g/L cysteine/HCl was added beforehand as reducing agent.
The batches are then incubated in “Hungate” test tubes for a maximum of 28 h while shaking at 37° C. Samples are taken at various times and tested for content of residual oligosaccharides, short-chain fatty acids, lactic acid and pH.

[3] = system: glucoamylase/maltase (GM complex); test: Stability with respect to small intestine α-glucosidases: glucoamylase/maltase; conditions: 120 min incubation
Experimental: (§1) Solution 1: 0.1 mol/L triethanolamine (TEA) buffer, pH 7.0
(§2) Solution 11: Glucoamylase/maltase enzyme complex in solution 1
(§3) i) 0.7 unit of the enzyme complex saccharase/isomaltase (solution 10) or glucoamylase/maltase (solution 11) was added in each case to 1.0 mL of a carbohydrate solution heated to 37° C. (solution 2 to solution 8), mixed and incubated at 37° C.
(§4) ii) For incubation under more severe conditions, 16 units of the enzyme complex saccharase/isomaltase or 13 units of the enzyme complex glucoamylase/maltase were used. The reaction was stopped after 2 h by heating to 95° C. for 15 min. The resulting monosaccharides and the undegraded saccharides of the relevant batches were quantitatively determined by HPAEC.

[4] = molecular target: saccharase/isomaltase (SI complex) (Sus scrofa, UniProt P56729); test: Stability with respect to small intestine α-glucosidases: saccharase/isomaltase; conditions: 120 min incubation
Text: Solution 6: 1% solution of maltose in solution 1
Solution 7: 1% solution of sucrose in solution 1
Solution 8: 1% solution of isomalt in solution 1
Solution 9: 1% solution of isomaltulose in solution 1
Solution 10: Saccharase/isomaltase enzyme complex in solution 1

[5] = system: glucoamylase/maltase (GM complex)
Experimental: as §1, §2, §3, §4

[6] = Standard (0.7 unit), 37° C., pH 7.0

saccharase/isomaltase (SI complex), sequence (P56729 with tags, fused parts or gaps limits assumed): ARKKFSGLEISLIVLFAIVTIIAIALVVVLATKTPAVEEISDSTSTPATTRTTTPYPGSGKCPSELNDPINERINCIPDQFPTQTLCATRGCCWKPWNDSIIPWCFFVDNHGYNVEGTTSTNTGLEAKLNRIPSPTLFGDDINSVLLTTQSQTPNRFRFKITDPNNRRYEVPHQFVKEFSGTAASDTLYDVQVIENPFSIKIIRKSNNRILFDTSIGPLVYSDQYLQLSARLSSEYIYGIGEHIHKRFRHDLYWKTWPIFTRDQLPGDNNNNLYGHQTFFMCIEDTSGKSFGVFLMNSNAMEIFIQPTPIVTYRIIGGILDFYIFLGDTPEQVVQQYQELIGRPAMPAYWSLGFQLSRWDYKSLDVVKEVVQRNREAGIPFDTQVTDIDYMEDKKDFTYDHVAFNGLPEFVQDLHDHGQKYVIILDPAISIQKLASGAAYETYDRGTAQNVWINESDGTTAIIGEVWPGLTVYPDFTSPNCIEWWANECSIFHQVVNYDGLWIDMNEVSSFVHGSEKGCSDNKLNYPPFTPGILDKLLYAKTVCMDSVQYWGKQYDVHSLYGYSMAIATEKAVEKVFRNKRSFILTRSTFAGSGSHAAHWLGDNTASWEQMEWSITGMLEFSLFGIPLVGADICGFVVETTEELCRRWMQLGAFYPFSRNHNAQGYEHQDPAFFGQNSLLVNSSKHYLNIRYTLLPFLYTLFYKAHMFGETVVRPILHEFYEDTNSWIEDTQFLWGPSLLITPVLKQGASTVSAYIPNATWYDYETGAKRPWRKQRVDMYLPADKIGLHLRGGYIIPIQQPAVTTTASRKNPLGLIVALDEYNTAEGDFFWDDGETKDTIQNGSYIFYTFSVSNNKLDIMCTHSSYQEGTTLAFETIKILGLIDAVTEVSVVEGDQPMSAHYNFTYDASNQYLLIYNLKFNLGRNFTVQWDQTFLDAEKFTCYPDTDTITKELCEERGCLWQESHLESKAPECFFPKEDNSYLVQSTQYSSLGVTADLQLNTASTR
saccharase/isomaltase (SI complex), sequence (P56729 with tags, fused parts or gaps limits assumed): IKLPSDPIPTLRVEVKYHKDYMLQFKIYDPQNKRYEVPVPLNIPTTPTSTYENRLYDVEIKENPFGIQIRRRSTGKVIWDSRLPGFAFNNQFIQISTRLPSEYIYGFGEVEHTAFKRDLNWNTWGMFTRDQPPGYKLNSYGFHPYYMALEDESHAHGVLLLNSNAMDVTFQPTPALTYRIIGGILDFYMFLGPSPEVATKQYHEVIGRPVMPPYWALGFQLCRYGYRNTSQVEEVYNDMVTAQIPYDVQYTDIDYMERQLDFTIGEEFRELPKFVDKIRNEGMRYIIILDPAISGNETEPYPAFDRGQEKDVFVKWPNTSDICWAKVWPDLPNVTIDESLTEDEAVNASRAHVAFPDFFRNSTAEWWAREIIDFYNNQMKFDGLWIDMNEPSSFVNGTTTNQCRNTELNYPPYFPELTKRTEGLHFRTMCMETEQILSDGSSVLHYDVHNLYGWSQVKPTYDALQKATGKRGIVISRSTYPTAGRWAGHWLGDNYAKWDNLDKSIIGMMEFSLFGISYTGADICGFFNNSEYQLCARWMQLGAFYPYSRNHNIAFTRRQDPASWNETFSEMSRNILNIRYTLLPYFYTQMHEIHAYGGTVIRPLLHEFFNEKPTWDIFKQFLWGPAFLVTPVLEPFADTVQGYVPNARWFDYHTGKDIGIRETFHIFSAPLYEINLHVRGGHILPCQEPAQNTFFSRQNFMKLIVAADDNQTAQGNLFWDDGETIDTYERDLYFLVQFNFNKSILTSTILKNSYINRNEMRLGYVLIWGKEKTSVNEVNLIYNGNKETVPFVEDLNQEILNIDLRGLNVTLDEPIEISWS

Row | Molecule | Hydrolysis rate [%] ([1]; incubation time 0 min) | Hydrolysis rate [%] ([1]; incubation time 60 min) | Hydrolysis rate [%] ([1]; incubation time 120 min) | Hydrolysis rate [%] ([1]; incubation time 180 min) | Hydrolysis rate [%], incubation with lactase (lactase) [%] | Degradation rate (human feces; incubation time 7 (h)) [%] | Degradation rate (human feces; incubation time 22 (h)) [%] | Hydrolysis rate [%] [3, 6] | Butyrate content (end sample) (human feces) [mmol/L] | other results
1 | OC[C@H]1O[C@@](CO)(OC[C@@]2(O[C@H]3O[C@H](CO)[C@@H](O)[C@H](O)[C@H]3O)O[C@H](CO)[C@@H](O)[C@@H]2O)[C@@H](O)[C@@H]1O [1-Kestose, reference compound] | 0 | 11 | 25 | 36 |  |  |  |  |  | 
2 | OCC1O[C@@H](O[C@@H]2C(CO)O[C@H](OC[C@@H](O)[C@@H](O)[C@H](O)C(O)CO)C(O)C2O)C(O)C(O)[C@H]1O (mixture of isomers) [β-1,4-Galactosyl isomalt, β-D-galactosyl-(1→4)-α-D-glucosyl-(1→6)-D-sorbitol (β-1,4-galactosyl-1,6-GPS) and β-D-galactosyl-(1→4)-α-D-glucosyl-(1→1)-D-mannitol(β-1,4-galactosyl-1,1-GPM)] | 0 | 0 | 0 | <1 | 13.4 | 61 | 97.7 | 0% |  | Decomposition rate [%] [2]: <1%; Degradation rate (human feces; incubation time 28 (h)): 96%; Hydrolysis rate [%] ([3]; More stringent (13 units)): 0%
3 | Isomalt |  |  |  |  |  |  |  |  |  | Hydrolysis rate [%] ([4]; More stringent (16 units)): 52.4%; Hydrolysis rate [%] ([4]; More stringent (16 units), listed as isomalt): 52%; Hydrolysis rate [%] [4, 6]: 3.5%; Hydrolysis rate [%] ([4]; Standard (0.7 unit), 37° C., pH 7.0, listed as isomalt): partially broken down; Hydrolysis rate [%] [5]: 12.8%; Hydrolysis rate [%] ([5]; pH 7): 0%
4 | OC[C@H]1O[C@@H](O[C@H]2[C@H](O)[C@@H](O)[C@@H](O[C@]3(CO)O[C@H](CO)[C@@H](O)[C@@H]3O)O[C@@H]2CO)[C@H](O)[C@@H](O)[C@H]1O [Lactosucrose, reference compound] |  |  |  |  |  | 98.9 |  |  | 6.5 | content of butyrate formed at the end of the fermentations (human feces): about 6 mmol/L; Degradation rate (human feces; incubation time 7 (h), listed as lactosucrose): nearly completely metabolized; Degradation rate (human feces; incubation time 14 (h)): 100%
5 | galactosyl lactose [Galactosyl-Lactose (Oligomate DP 3), reference compound] |  |  |  |  |  | 96.6 | 100 |  | 6.3 | content of butyrate formed at the end of the fermentations (human feces): about 6 mmol/L; Degradation rate (human feces; incubation time 7 (h), listed as galactosyl lactose): nearly completely metabolized; Degradation rate (human feces; incubation time 14 (h)): 99.5%
6 | OC[C@H]1O[C@H](O[C@H]2[C@H](O)[C@@H](O)[C@H](O)O[C@@H]2CO)[C@H](O)[C@@H](O)[C@@H]1O [Maltose] |  |  |  |  |  |  |  | Nearly complete hydrolysis |  | 
7 | OC[C@H]1O[C@@H](O[C@H]2[C@H](O)[C@@H](O)C(O)O[C@@H]2CO)[C@H](O)[C@@H](O)[C@H]1O (some centres unmarked) [Lactose, reference compound] |  |  |  |  | 95.6 |  |  |  |  | Hydrolysis rate [%], incubation with lactase (lactase; listed as lactose): Nearly complete hydrolysis
8 | OC[C@H]1O[C@@](CO)(O[C@H]2O[C@H](CO)[C@@H](O)[C@H](O)[C@H]2O)[C@@H](O)[C@@H]1O [Sucrose, reference compound] | 0 | 2 | 5 | 8 |  |  |  |  |  | Hydrolysis rate [%] ([4]; Standard (0.7 unit), 37° C., pH 7.0, listed as saccharose): Nearly complete hydrolysis
9 | OCC1O[C@@H](OCC2O[C@H](OC[C@@H](O)[C@@H](O)[C@H](O)C(O)CO)C(O)C(O)[C@@H]2O)C(O)C(O)[C@H]1O (mixture of isomers) [β-1,6-Galactosyl isomalt, β-D-galactosyl-(1→6)-α-D-glucosyl-(1→6)-D-sorbitol(β-1,6-galactosyl-1,6-GPS) and β-D-galactosyl-(1→6)-α-D-glucosyl-(1→1)-D-mannitol(β-1,6-galactosyl-1,1-GPM)] | 0 | 0 | 0 | <1 | 9.3 | 64.2 | 96.1 | 0% | 15.3 | Decomposition rate [%] [2]: <1%; Degradation rate (human feces; incubation time 28 (h)): 99.2%; Hydrolysis rate [%] ([3]; More stringent (13 units)): 0%
10 | OC[C@H]1O[C@H](OC[C@H]2O[C@](O)(CO)[C@@H](O)[C@@H]2O)[C@H](O)[C@@H](O)[C@@H]1O [Isomaltulose, 6-O-α-D-glucopyranosyl-(1→6)-β-D-fructofuranose] |  |  |  |  |  |  |  |  |  | Hydrolysis rate [%] ([4]; More stringent (16 units)): 79.0%; Hydrolysis rate [%] [4, 6]: 18.0%; Hydrolysis rate [%] [5]: 39.9%; Hydrolysis rate [%] ([5]; pH 7): 3.1%
